Source: patent EP2550964A1, “Temsirolimus for use in the prevention and/or treatment of a delta 9-tetrahydrocannabinol-induced anxiety disorder” (Universitat Pompeu-Fabra, priority 2011, dated 2013)

Key:
Type in all cases: in vivo
mice [1] = assay: Object-recognition task (V-maze, discrimination index)
Method: Object-recognition memory was assayed in the V-maze, a black Plexiglas maze with two corridors (30 cm long x 4.5 cm wide) set in V with a 90 degrees angle, and 15 cm high walls. The test was performed as previously described (Puighermanal, E. et al., 2009. Nature Neuroscience, 12:1152-1158). Briefly, a discrimination index was calculated in the test session. All the drugs (temsirolimus or THC and their vehicles) were injected intraperitoneally after the training session. Objects to be explored in the test were made out of different materials (marble, wood or plastic) and shapes, and had been tested in previous experiments to show no preference or dislike for control mice. On the first day, mice were placed for 9 min in the V-maze for habituation. On the second day, mice were placed back in the V-maze where two objects were positioned at the end of the corridors. On the next day (test day), mice were placed in the V-maze where one of the objects was replaced by a new object. The time spent exploring the familiar object (Tf) and the novel object (Tn) were counted and the discrimination index (D.I.) was calculated as follows: D.I.= [Tn-Tf]/[Tn+Tf]. D.I. close to zero means a cognitive deficit, while D.I. close to 0.5 means a good cognitive function in this memory test.

mice [2] = system: mice
Method: Elevated plus maze test. The elevated plus maze test was performed in a black Plexiglas apparatus with four arms (29 cm long x 5 cm wide) set in cross from a neutral central square (5 cm x 5 cm) elevated 40 cm above the floor. Five-min test sessions were performed 120 min after drug administration through intraperitoneal injection (temsirolimus and/or THC, and their vehicles). The percentage of time spent in the open arms was determined as a measure of anxiety-like processes. The model is based on rodents' aversion of open spaces. Anxiety reduction in the elevated plus maze test is indicated by an increase in the proportion of time spent in the open arms

mice [3] = assay: Antinociception, acetic acid visceral pain test (number of writhes)
Method: This visceral pain test was performed 120 min after THC administration. Mice received an i.p. administration of acetic acid (0.8 % solution) injected in a volume of […] of body weight. Immediately after, mice were placed in individual transparent cylinders (16 cm high, 16 cm diameter) for 20 min. The number of writhes was counted during 15 min, starting 5 min after acetic acid administration.

SMILES | cognitive deficit on chronic administration (object-recognition test) (mice [1]; mouse, in vivo) | persistence of cognitive deficit after finishing the exposition to THC (mice [1]; mouse, in vivo) | amnesic effect in the object-recognition test (mice [1]; mouse, in vivo, ip) | anxiety-like effect of THC at low dose (mice [2]; mouse, in vivo) | anxiety-like effect of THC at high doses (mice [2]; mouse, in vivo, 10 mg/kg/day) | analgesic effects (abdominal writhes) (mice [3]; mouse, in vivo) | blockade of the amnesic effect of THC (mice [1]; pre-treatment with temsirolimus 1 mg/kg/day (3 mg/m^2/day), THC 10 mg/kg/day (30 mg/m^2/day), Figure 2) | prevention of the THC cognitive deficit on chronic co-administration (mice [1]; temsirolimus 1 mg/kg/day (3 mg/m^2/day) together with THC 10 mg/kg/day (30 mg/m^2/day), chronic, Figure 3B) | effects on the recognition memory (mice [1]; temsirolimus alone, 1 mg/kg/day (3 mg/m^2/day), i.p., Figure 1) | amnesic effects (object-recognition test) (mice [1]; temsirolimus alone, high doses 10, 30 and 100 mg/kg/day (30, 90 and 300 mg/m^2/day), i.p., Figure 1) | influence on the anxiolytic effect of THC (mice [2]; temsirolimus 1 mg/kg/day (3 mg/m^2/day), THC 0.3 mg/kg/day (0.9 mg/m^2/day), Figure 5) | blockade of the anxiogenic effects of THC (mice [2]; temsirolimus 1 mg/kg/day (3 mg/m^2/day), THC 10 mg/kg/day (30 mg/m^2/day), i.p., test 120 min after administration, Figure 4) | influence on the analgesic capacity of THC (mice [3]; pre-treatment with temsirolimus 1 mg/kg/day (3 mg/m^2/day) and THC 10 mg/kg/day (30 mg/m^2/day), Figure 6)
CCCCCc1cc(O)c2c(c1)OC(C)(C)[C@@H]1CCC(C)=C[C@@H]21 [THC, (-)-(6aR,10aR)-6,6,9-trimethyl-3-pentyl-6a,7,8,10a-tetrahydro-6H-benzo[c]chromen-1-ol] | produces a cognitive deficit | continues showing a cognitive deficit during the following four days | always presents an amnesic effect | causes anxiolytic effects | cause anxiogenic effects | has analgesic effects | – | – | – | – | – | – | –
CO[C@H]1C[C@@H]2CC[C@@H](C)[C@@](O)(O2)C(=O)C(=O)N2CCCC[C@H]2C(=O)O[C@H]([C@H](C)C[C@@H]2CC[C@@H](OC(=O)C(C)(CO)CO)[C@H](OC)C2)CC(=O)[C@H](C)/C=C(\C)[C@@H](O)[C@@H](OC)C(=O)[C@H](C)C[C@H](C)/C=C/C=C/C=C/1C [temsirolimus, (1R,2R,4S)-4-{(2R)-2-[(3S,6R,7E,9R,10R,12R,145,15E,17E,19E,215,23S,26R,27R,34aS)-9,27-dihydroxy-10,21-dimethoxy-6,8,12,14,20,26-hexamethyl-1,5,11,28,29-pentaoxo-1,4,5,6,9,10,11,12,13,14,21,22,23,24,25,26,27,28,29,31,32,33,34,34a-tetracosahydro-3H-23,27-epoxypyrido[2,1-c][1,4]oxazacyclohentriacontin-3-yl]propyl}-2-methoxycyclohexyl 3-hydroxy-2-(hydroxymethyl)-2-methylpropanoate] | – | – | – | – | – | – | blocks the amnesic effect | prevented the appearance of the THC cognitive deficit | does not have effects on the recognition memory | shows amnesic effects | does not avoid the anxiolytic effect | blocks the anxiogenic effects | does not affect the analgesic capacity of THC
